Test results published in patent US12077503B2, “Substituted cyclic amides and their use as herbicides” (FMC CORPORATION, priority 2015, dated 2024).

Legend:
Type in all cases: in vivo
[1] = test system: giant foxtail (Setaria faberi); assay: Test G Post-Emergence Protocol; details: Setaria faberi, post-emergence, 312 h; for pest or weed control at 15.625 g/ha: 15.625 g ai/ha, evaluated after 13 days (100=total damage to plant; 0=no damage to plant), read-out: Foxtail, Giant damage rating; for pest or weed control at 62.5 g/ha: 62.5 g ai/ha, read-out: Foxtail, Giant damage rating (100=total damage to plant; 0=no damage to plant); for pest or weed control at 62.5 g/ha / pest or weed control at 250 g/ha: evaluated after 13 days; for pest or weed control at 250 g/ha: 250 g ai/ha, read-out: damage to plant, Foxtail, Giant (100=total damage to plant; 0=no damage to plant)
Procedure, shortened: (§1)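 Post-emergence herbicidal damage, scored visually 0–100 at 13 days. Application at 15.625, 62.5 or 250 g/ha onto 8-day-old plants grown under glasshouse control.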

[2] = test system: velvetleaf (Abutilon theophrasti); assay: Test G Post-Emergence Protocol; details: Abutilon theophrasti, post-emergence, 312 h; for pest or weed control at 15.625 g/ha: 15.625 g ai/ha, evaluated after 13 days (100=total damage to plant; 0=no damage to plant), read-out: Velvetleaf damage rating; for pest or weed control at 62.5 g/ha: 62.5 g ai/ha, read-out: Velvetleaf damage rating (100=total damage to plant; 0=no damage to plant); for pest or weed control at 62.5 g/ha / pest or weed control at 250 g/ha: evaluated after 13 days; for pest or weed control at 250 g/ha: 250 g ai/ha, read-out: damage to plant, Velvetleaf (100=total damage to plant; 0=no damage to plant)
Procedure, shortened: as §1

[3] = test system: redroot pigweed (Amaranthus retroflexus); assay: Test G Post-Emergence Protocol; details: Amaranthus retroflexus, post-emergence, 312 h; for pest or weed control at 15.625 g/ha: 15.625 g ai/ha, evaluated after 13 days (100=total damage to plant; 0=no damage to plant), read-out: Pigweed, Redroot damage rating; for pest or weed control at 62.5 g/ha: 62.5 g ai/ha, read-out: Pigweed, Redroot damage rating (100=total damage to plant; 0=no damage to plant); for pest or weed control at 62.5 g/ha / pest or weed control at 250 g/ha: evaluated after 13 days; for pest or weed control at 250 g/ha: 250 g ai/ha, read-out: damage to plant, Pigweed, Redroot (100=total damage to plant; 0=no damage to plant)
Procedure, shortened: as §1

[4] = test system: barnyardgrass (Echinochloa crus-galli); assay: Test G Post-Emergence Protocol; details: Echinochloa crus-galli, post-emergence, 312 h; for pest or weed control at 15.625 g/ha: 15.625 g ai/ha, evaluated after 13 days (100=total damage to plant; 0=no damage to plant), read-out: Barnyardgrass damage rating; for pest or weed control at 62.5 g/ha: 62.5 g ai/ha, read-out: Barnyardgrass damage rating (100=total damage to plant; 0=no damage to plant); for pest or weed control at 62.5 g/ha / pest or weed control at 250 g/ha: evaluated after 13 days; for pest or weed control at 250 g/ha: 250 g ai/ha, read-out: damage to plant, Barnyardgrass (100=total damage to plant; 0=no damage to plant)
Procedure, shortened: as §1

[5] = test system: ivy-leaved morning glory (Ipomoea hederacea); assay: Test G Post-Emergence Protocol; details: Ipomoea, post-emergence, 312 h; for pest or weed control at 15.625 g/ha: 15.625 g ai/ha, evaluated after 13 days (100=total damage to plant; 0=no damage to plant), read-out: Morningglory, Ivy-leaved damage rating
Procedure, shortened: as §1

corn (Zea mays) [6] = assay: Test G Post-Emergence Protocol; details: Zea mays, post-emergence, 312 h; for plant injury at 15.625 g/ha: 15.625 g ai/ha, evaluated after 13 days (100=total damage to plant; 0=no damage to plant), read-out: Corn damage rating; for plant injury at 62.5 g/ha: 62.5 g ai/ha, read-out: Corn damage rating (100=total damage to plant; 0=no damage to plant); for plant injury at 62.5 g/ha / plant injury at 250 g/ha: evaluated after 13 days; for plant injury at 250 g/ha: 250 g ai/ha, read-out: damage to plant, Corn (100=total damage to plant; 0=no damage to plant)
Procedure, shortened: as §1

[7] = test system: giant foxtail (Setaria faberi); assay: Test G Pre-Emergence Protocol; details: Setaria faberi, pre-emergence, 312 h, evaluated after 13 days; for pest or weed control at 15.625 g/ha: 15.625 g ai/ha; for pest or weed control at 15.625 g/ha / pest or weed control at 250 g/ha: read-out: Foxtail, Giant damage rating (100=total damage to plant; 0=no damage to plant); for pest or weed control at 62.5 g/ha: 62.5 g ai/ha, 100=total damage to plant, 0=no damage to plant, read-out: plant damage rating, Foxtail, Giant; for pest or weed control at 250 g/ha: 250 g ai/ha
Procedure, shortened: (§2)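 Seeds were sown in standard soil and kept one day in a glasshouse (24/16° C day/night, 14 h light, 65% humidity), then sprayed with compound in acetone/water (50:50) containing 0.5% Tween 20 at 15.625, 62.5 or 250 g/ha. Damage was scored after 13 days (0 = none, 100 = total).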

[8] = test system: velvetleaf (Abutilon theophrasti); assay: Test G Pre-Emergence Protocol; details: Abutilon theophrasti, pre-emergence, 312 h, evaluated after 13 days; for pest or weed control at 15.625 g/ha: 15.625 g ai/ha; for pest or weed control at 15.625 g/ha / pest or weed control at 250 g/ha: read-out: Velvetleaf damage rating (100=total damage to plant; 0=no damage to plant); for pest or weed control at 62.5 g/ha: 62.5 g ai/ha, 100=total damage to plant, 0=no damage to plant, read-out: plant damage rating, Velvetleaf; for pest or weed control at 250 g/ha: 250 g ai/ha
Procedure, shortened: as §2

[9] = test system: redroot pigweed (Amaranthus retroflexus); assay: Test G Pre-Emergence Protocol; details: Amaranthus retroflexus, pre-emergence, 312 h, evaluated after 13 days; for pest or weed control at 15.625 g/ha: 15.625 g ai/ha; for pest or weed control at 15.625 g/ha / pest or weed control at 250 g/ha: read-out: Pigweed, Redroot damage rating (100=total damage to plant; 0=no damage to plant); for pest or weed control at 62.5 g/ha: 62.5 g ai/ha, 100=total damage to plant, 0=no damage to plant, read-out: plant damage rating, Pigweed, Redroot; for pest or weed control at 250 g/ha: 250 g ai/ha
Procedure, shortened: as §2

[10] = test system: barnyardgrass (Echinochloa crus-galli); assay: Test G Pre-Emergence Protocol; details: Echinochloa crus-galli, pre-emergence, 312 h, evaluated after 13 days; for pest or weed control at 15.625 g/ha: 15.625 g ai/ha, read-out: Barnyard grass damage rating (100=total damage to plant; 0=no damage to plant); for pest or weed control at 62.5 g/ha: 62.5 g ai/ha, 100=total damage to plant, 0=no damage to plant, read-out: plant damage rating, Barnyardgrass; for pest or weed control at 250 g/ha: 250 g ai/ha, read-out: Barnyardgrass damage rating (100=total damage to plant; 0=no damage to plant)
Procedure, shortened: as §2

[11] = test system: ivy-leaved morning glory (Ipomoea hederacea); assay: Test G Pre-Emergence Protocol; details: Ipomoea, pre-emergence, 312 h, evaluated after 13 days; for pest or weed control at 15.625 g/ha: 15.625 g ai/ha, read-out: Morning-glory, Ivy-leaved damage rating (100=total damage to plant; 0=no damage to plant); for pest or weed control at 62.5 g/ha: 62.5 g ai/ha, 100=total damage to plant, 0=no damage to plant, read-out: plant damage rating, Morningglory, Ivy-leaved; for pest or weed control at 250 g/ha: 250 g ai/ha, read-out: Morningglory, Ivy-leaved damage rating (100=total damage to plant; 0=no damage to plant)
Procedure, shortened: as §2

corn (Zea mays) [12] = assay: Test G Pre-Emergence Protocol; details: Zea mays, pre-emergence, 312 h, evaluated after 13 days; for plant injury at 15.625 g/ha: 15.625 g ai/ha; for plant injury at 15.625 g/ha / plant injury at 250 g/ha: read-out: Corn damage rating (100=total damage to plant; 0=no damage to plant); for plant injury at 62.5 g/ha: 62.5 g ai/ha, 100=total damage to plant, 0=no damage to plant, read-out: plant damage rating, Corn; for plant injury at 250 g/ha: 250 g ai/ha
Procedure, shortened: as §2

| Compound | pest or weed control at 15.625 g/ha [1] | pest or weed control at 62.5 g/ha [1] | pest or weed control at 250 g/ha [1] | pest or weed control at 15.625 g/ha [2] | pest or weed control at 62.5 g/ha [2] | pest or weed control at 250 g/ha [2] | pest or weed control at 15.625 g/ha [3] | pest or weed control at 62.5 g/ha [3] | pest or weed control at 250 g/ha [3] | pest or weed control at 15.625 g/ha [4] | pest or weed control at 62.5 g/ha [4] | pest or weed control at 250 g/ha [4] | pest or weed control at 15.625 g/ha [5] | plant injury at 15.625 g/ha (corn (Zea mays) [6]) | plant injury at 62.5 g/ha (corn (Zea mays) [6]) | plant injury at 250 g/ha (corn (Zea mays) [6]) | pest or weed control at 15.625 g/ha [7] | pest or weed control at 62.5 g/ha [7] | pest or weed control at 250 g/ha [7] | pest or weed control at 15.625 g/ha [8] | also measured |
| --- | --- | --- | --- | --- | --- | --- | --- | --- | --- | --- | --- | --- | --- | --- | --- | --- | --- | --- | --- | --- | --- |
| Cc1n[nH]c(NC(=O)[C@@H]2C(=O)N(C)C[C@H]2c2ccc(C(F)(F)F)cc2)c1C#N (racemic) [Compound 1582] | 0% | 0% | 0% | 0% | 0% | 0% | 0% | 0% | 0% | 0% | 0% | 0% | 0% | 0% | 0% | 0% | 0% | 0% | 0% | 0% | pest or weed control at 62.5 g/ha [8]: 0%; pest or weed control at 250 g/ha [8]: 0%; pest or weed control at 15.625 g/ha [9]: 0%; pest or weed control at 62.5 g/ha [9]: 0%; pest or weed control at 250 g/ha [9]: 0%; pest or weed control at 15.625 g/ha [10]: 0%; pest or weed control at 62.5 g/ha [10]: 0%; pest or weed control at 250 g/ha [10]: 0%; pest or weed control at 15.625 g/ha [11]: 0%; pest or weed control at 62.5 g/ha [11]: 0%; pest or weed control at 250 g/ha [11]: 0%; plant injury at 15.625 g/ha (corn (Zea mays) [12]): 0%; plant injury at 62.5 g/ha (corn (Zea mays) [12]): 0%; plant injury at 250 g/ha (corn (Zea mays) [12]): 0% |
| CN1C[C@@H](c2ccc(C(F)(F)F)cc2)[C@H](C(=O)Nc2cncnc2)C1=O (racemic) [Compound 1583] | 0% | 20% | 10% | 0% | 0% | 20% | 0% | 0% | 20% | 0% | 0% | 20% | 0% | 0% | 0% | 0% | 0% | 0% | 30% | 0% | pest or weed control at 62.5 g/ha ([5]; 62.5 g ai/ha, evaluated after 13 days, read-out: Morningglory, Ivy-leaved damage rating (100=total damage to plant; 0=no damage to plant)): 10%; pest or weed control at 250 g/ha ([5]; 250 g ai/ha, evaluated after 13 days, read-out: damage to plant, Morningglory, Ivy-leaved (100=total damage to plant; 0=no damage to plant)): 30%; pest or weed control at 62.5 g/ha [8]: 0%; pest or weed control at 250 g/ha [8]: 0%; pest or weed control at 15.625 g/ha [9]: 0%; pest or weed control at 62.5 g/ha [9]: 0%; pest or weed control at 250 g/ha [9]: 30%; pest or weed control at 15.625 g/ha [10]: 0%; pest or weed control at 62.5 g/ha [10]: 0%; pest or weed control at 250 g/ha [10]: 0%; pest or weed control at 15.625 g/ha [11]: 0%; pest or weed control at 62.5 g/ha [11]: 0%; pest or weed control at 250 g/ha [11]: 0%; plant injury at 15.625 g/ha (corn (Zea mays) [12]): 0%; plant injury at 62.5 g/ha (corn (Zea mays) [12]): 0%; plant injury at 250 g/ha (corn (Zea mays) [12]): 0% |
